Reference: patent US20020107401A1, “Production of phosphonopyrazoles” (MONSNTO TECHNOLOGY LLC., priority 2000, published 2002)

Tested on: wheat variety 'OSLO'
Assay: Chemical hybridizing agent assay for male sterility (male gametocidal activity), foliar spray, seed counts
Assay type: in vivo
Method: The compounds of structure 3 and analogs are applied at a rate of 50-1000 μg/plant to cause pollen sterility. The male gametocidal activity is determined on the wheat variety ‘OSLO’, a double-dwarf hard red spring wheat. The wheat seed is planted to a depth of 0.5 to 1 inch (1-2.5 cm) in a 6-inch long (15 cm) conetainer (a cone shaped container, one seed per conetainer). The conetainers are filled with Metromix 200 potting soil supplemented with a slow release fertilizer, Osmocote and Sierra combined at 93 g/cu ft soil for a NPK of 31-20-24. Micromax with micronutrients is added at 17 g/cu ft rate. Fertilizer supplier is Hummerts, Earth City, Mo. 63045. The RLC-4 conetainers are 1×6 inch (2.5×15 cm) with a capacity of 4 cu in. (Stuewe & Sons, Inc., Corvallis, Oreg., 97333-9461). These are loaded into racks of 100 that occupy a 1.0 ft by 1.0 ft area. After seeding, the racks are placed in growth chambers with 14/10 hour day/night cycle at 18° C. These chambers are equipped with metal halide lamps that deliver approximately 300 μE/m^2/sec. Humidity is maintained at 50%, and plants are watered as needed. Approximately six weeks after seeding, wheat plants are selected for chemical application at or just prior to flag-leaf emergence from the boot (Feekes Scale 7.5-8.0) (Large, 1954. Plant Pathology 3:128-129). Plants are placed in a rack containing cardboard dividers to prevent each from being cross contaminated by an adjacent spray. The following procedures are used to evaluate the activity of the compounds of the invention for inducing male sterility in cereals. The plant heights vary and as uniformity is required for chemical application, the top 0-10 cm are removed by excision, such that the plant height is flush with the top of the divider. Prior to application, a 50 mL solution of DMSO (dimethylsulfoxide) containing the chemical hybridizing agent is diluted with 150 mL of water containing 1% SILWET L-77 surfactant (Witco Corp., Greenwich, Conn. 06831-2559) plus 2% humectant (glycerin, supplied by VWR Scientific Products Co.). The formulated chemicals are applied foliarly as an atomized spray onto the plants. After application, the plants are moved into growth chambers and allowed to grow until the heads emerge from the boot. Prior to anther extrusion (approximately 10 to 14 days after treatment), the plants are placed back into dividers in order to isolate the seed heads and to prevent cross-pollination. The plants are moved to a greenhouse, which has similar environmental conditions as the growth chambers. Approximately one week later (3 weeks after treatment (WAT) and at anther extrusion), open head morphology ratings are initiated. Plants are rated four times over a period of eight days (Table 2). The chemical hybridizing agent Genesis® (a registered Trade Mark of the Monsanto Co) is used as the positive control and for comparative purposes as to the rate of application and the efficacy as determined by percent sterility. The negative control is treatment of the wheat plants with the compounds making up the formulation of surfactant and humectant without the chemical compositions being assayed as chemical hybridizing agents. The data in Table 2 is expressed as % Sterility=(1-(Ave. normalized seed counts of sample/Ave. normalized seed counts of controls))*100 with the treatments comprising foliar application and rate titration at Feekes stage 8, across five replicates. Approximately two weeks after open head ratings are completed (six WAT), seed counts are collected.

[1] = Table 2, rate 50 μg/plant, foliar, Feekes 6
[2] = Table 2, rate 50 μg/plant, foliar, Feekes 8
[3] = Table 2, rate 125 μg/plant, foliar, Feekes 6
[4] = Table 2, rate 125 μg/plant, foliar, Feekes 8
[5] = Table 2, rate 250 μg/plant, foliar, Feekes 6
[6] = Table 2, rate 250 μg/plant, foliar, Feekes 8
[7] = Table 2, rate 500 μg/plant, foliar, Feekes 6
[8] = Table 2, rate 500 μg/plant, foliar, Feekes 8
[9] = Table 2, rate 1000 μg/plant, foliar, Feekes 8

Compound | Sterility (%) [1] | Sterility (%) [2] | Sterility (%) [3] | Sterility (%) [4] | Sterility (%) [5] | Sterility (%) [6] | Sterility (%) [7] | Sterility (%) [8] | Sterility (%) [9] | further results
COP(=O)(OC)c1cnn(-c2ccc(Cl)cc2)c1O [Compound 3a, Dimethyl [1-(4-chlorophenyl)-5-hydroxy-1H-pyrazol-4-yl]phosphonate] | 27% | 39% | 0% | 34% | 0% | 79% | 49% | 92% | – | –
COP(=O)(OC)c1cnn(-c2ccc(F)cc2)c1O [Compound 3b, Dimethyl [1-(4-fluorophenyl)-5-hydroxy-1H-pyrazol-4-yl]phosphonate] | – | 23% | – | 30% | – | 90% | – | 91% | 98% | –
COP(=O)(OC)c1cnn(-c2ccccc2Cl)c1O [Compound 3c, Dimethyl [1-(2-chlorophenyl)-5-hydroxy-1H-pyrazol-4-yl]phosphonate] | – | 25% | – | 29% | – | 18% | – | 53% | 36% | –
COP(=O)(OC)c1cnn(-c2ccc(Br)cc2)c1O [Compound 3d, Dimethyl [1-(4-bromophenyl)-5-hydroxy-1H-pyrazol-4-yl]phosphonate] | – | 0% | – | 0% | – | 17% | – | 15% | 54% | –
COP(=O)(OC)c1cnn(C2CCCCC2)c1O [Compound 3e, Dimethyl [1-cyclohexyl-5-hydroxy-1H-pyrazol-4-yl]phosphonate] | – | 15% | – | 3% | – | 17% | – | 26% | 44% | –
O=P(O)(O)C1=CNN(c2ccc(Cl)cc2)C1O (stereo not drawn) [Compound 3j, 2-(4-Chlorophenyl)-3-hydroxy-1H-pyrazol-4-yl phosphonic acid] | 4% | 31% | 7% | 13% | 0% | 0% | 35% | 12% | – | –
COP(=O)([O-])c1cnn(-c2cc(C)cc(C)c2)c1O.[K+] [Compound 3l, methyl potassium[2-(3,5-dimethylphenyl)-3-hydroxy-1H-pyrazol-4-yl]phosphonate] | 0% | 12% | 17% | 28% | 39% | 24% | 54% | 39% | – | –
Cc1cc(C)cc(-n2ncc(P(=O)([O-])O)c2O)c1.[K+] [Compound 3n, hydrogen potassium[2-(3,5-dimethylphenyl)-3-hydroxy-1H-pyrazol-4-yl]phosphonate] | 7% | 15% | 7% | 11% | 10% | 4% | 31% | 20% | – | –
COP(=O)(OC)c1cnn(-c2ccc(Cl)cc2)c1OCc1ccc(Cl)cc1 [Compound 4a, Dimethyl{1-(4-Chlorophenyl)-5-[(4-chlorobenzyl)oxy]-1H-pyrazol-4-yl}phosphonate] | 0% | 48% | 0% | 80% | 9% | 93% | 34% | 93% | – | –
COP(=O)(OC)c1cnn(-c2ccc(Cl)cc2)c1OCc1ccccc1[N+](=O)[O-] [Compound 4b, Dimethyl{1-(4-chlorophenyl)-5-[(2-nitrobenzyl)oxy]-1H-pyrazol-4-yl}phosphonate] | 0% | 16% | 0% | 0% | 0% | 57% | 0% | 94% | – | –
CCn1cc(P(=O)(OC)OC)c(=O)n1-c1ccc(Cl)cc1 [Compound 5a, Dimethyl [2-(4-chlorophenyl)-2,3-dihydro-1-ethyl-3-oxo-pyrazol-4-yl]phosphonate] | – | – | – | – | – | – | – | – | – | Sterility (%) (Table 4, rate 50 μg/plant): 11%; Sterility (%) (Table 4, rate 125 μg/plant): 26%; Sterility (%) (Table 4, rate 250 μg/plant): 66%; Sterility (%) (Table 4, rate 500 μg/plant): 29%; Sterility (%) (Table 4, rate 1000 μg/plant): 10%
COP(=O)(OC)c1cn(C2CCCCC2)n(-c2ccc(Cl)cc2)c1=O [Compound 5b, Dimethyl[2-(4-chlorophenyl)-1-cyclohexyl-2,3-dihydro-3-oxo-pyrazol-4-yl]phosphonate] | – | – | – | – | – | – | – | – | – | Sterility (%) (Table 4, rate 50 μg/plant): 0%; Sterility (%) (Table 4, rate 125 μg/plant): 14%; Sterility (%) (Table 4, rate 250 μg/plant): 20%; Sterility (%) (Table 4, rate 500 μg/plant): 23%; Sterility (%) (Table 4, rate 1000 μg/plant): 62%
CCn1cc(P(=O)(OC)OC)c(=O)n1-c1cc(C)cc(C)c1 [Compound 5c, Dimethyl[2-(3,5-dimethylphenyl)-2,3-dihydro-1-ethyl-3-oxo-pyrazol-4-yl]phosphonate] | – | – | – | – | – | – | – | – | – | Sterility (%) (Table 4, rate 50 μg/plant): 8%; Sterility (%) (Table 4, rate 125 μg/plant): 1%; Sterility (%) (Table 4, rate 250 μg/plant): 16%; Sterility (%) (Table 4, rate 500 μg/plant): 48%; Sterility (%) (Table 4, rate 1000 μg/plant): 31%
CCCCn1cc(P(=O)(OC)OC)c(=O)n1-c1cc(C)cc(C)c1 [Compound 5d, Dimethyl[1-butyl-2-(3,5-dimethylphenyl)-2,3-dihydro-3-oxo-pyrazol-4-yl]phosphonate] | – | – | – | – | – | – | – | – | – | Sterility (%) (Table 4, rate 50 μg/plant): 29%; Sterility (%) (Table 4, rate 125 μg/plant): 0%; Sterility (%) (Table 4, rate 250 μg/plant): 28%; Sterility (%) (Table 4, rate 500 μg/plant): 24%; Sterility (%) (Table 4, rate 1000 μg/plant): 41%
COP(=O)(OC)c1cn(-c2ccc(Br)cc2)nc1O [Compound 8a, Dimethyl [1-(4-bromophenyl)-3-hydroxy-1H-pyrazol-4-yl]phosphonate] | – | – | – | – | – | – | – | – | – | Sterility (%) (Table 3, rate 50 μg/plant): 12%; Sterility (%) (Table 3, rate 125 μg/plant): 0%; Sterility (%) (Table 3, rate 250 μg/plant): 44%; Sterility (%) (Table 3, rate 500 μg/plant): 25%; Sterility (%) (Table 3, rate 1000 μg/plant): 15%
COP(=O)(OC)c1c(-c2ccccc2)nn(-c2ccc(Cl)cc2)c1O [Compound 10a, Dimethyl [1-(4-chlorophenyl)-5-hydroxy-3-phenyl-1H-pyrazol-4-yl]phosphonate] | – | 1% | – | 0% | – | 27% | – | 18% | 45% | –
COP(=O)(OC)c1c(-c2ccccc2)nn(-c2cc(C)cc(C)c2)c1O [Compound 10b, Dimethyl[1-(3,5-dimethylphenyl)-5-hydroxy-3-phenyl-1H-pyrazol-4-yl]phosphonate] | – | 5% | – | 0% | – | 11% | – | 33% | 45% | –
methyl potassium[4-chlorophenyl-3-hydroxy-1H-pyrazol-4-yl]phosphonate [Compound 3m] | 23% | 28% | 0% | 20% | 31% | 16% | 43% | 15% | – | –
